# B1: full-length transformed AFP molecule: full-length alpha-fetoprotein transformed by incubation with estradiol (E2) (protein, UniProt P02771 19-609, looked up)
# Alpha-fetoprotein: RTLHRNEYGIASILDSYQCTAEISLADLATIFFAQFVQEATYKEVSKMVKDALTAIEKPTGDEQSSGCLENQLPAFLEELCHEKEILEKYGHSDCCSQSEEGRHNCFLAHKKPTPASIPLFQVPEPVTSCEAYEEDRETFMNKFIYEIARRHPFLYAPTILLWAARYDKIIPSCCKAENAVECFQTKAATVTKELRESSLLNQHACAVMKNFGTRTFQAITVTKLSQKFTKVNFTEIQKLVLDVAHVHEHCCRGDVLDCLQDGEKIMSYICSQQDTLSNKITECCKLTTLERGQCIIHAENDEKPEGLSPNLNRFLGDRDFNQFSSGEKNIFLASFVHEYSRRHPQLAVSVILRVAKGYQELLEKCFQTENPLECQDKGEEELQKYIQESQALAKRSCGLFQKLGEYYLQNAFLVAYTKKAPQLTSSELMAITRKMAATAATCCQLSEDKLLACGEGAADIIIGHLCIRHEMTPVNPGVGQCCTSSYANRRPCFSSLVVDETYVPPAFSDDKFIFHKDLCQAQGVALQTMKQEFLINLVKQKPQITEEQLEAVIADFSGLLEKCCQGQEQEVCFAEEGQKLISKTRAALGV
# modifications: transformed by estradiol incubation
# What was measured:
# [1] = system: estrogen-stimulated growth of mouse uterus; format: in vivo; details: immature mouse uterus, 10-100 ng per mouse, peak assay point of the dilution series
# Protocol: An in vivo wet weight bioassay measuring inhibition of estrogen-stimulated growth of uteri was performed. The procedure of Mizejewski et al. was used for the wet weight assay (see Mizejewski, G. J. et al. (1983); Mizejewski, G. J. et al. (1986); Mizejewski, G. J. and A. S. Warner (1989); Mizejewski, G. J. et al., "Separation of the Estrogen-Activated Growth-Regulatory Forms of Alpha-Fetoprotein in Mouse Amniotic Fluid," Biol of Reprod 42:887-898 (1990); and Allen, S.H.G. et al. (1993)).
# Briefly, the synthesized powdered peptide was reconstituted in saline (1 mg/ml) to form a stock solution of the GIP. The stock solution was appropriately diluted to provide dosages of 25 to 100 ng/mouse. 0.1 ml of the appropriately diluted GIP was injected intraperitoneally into 15-18 day old Nya:NYLAR female mice. Control mice were injected with saline or other peptides, including a peptide encoded by a portion of the amino acid sequence of albumin and a random 34 amino acid peptide. 1 hour after this first injection, an estrogen challenge of 0.5 micrograms of E2 in 0.1 ml saline was given to determine the change in uterine responsiveness to E2 resulting from exposure to the first injection. 23 hours after the second injection, uteri were dissected, trimmed free of connective tissue and immediately weighed. The uterine wet weights were normalized to mouse body weight (mg uterine weight/g of body weight) to compensate for differences in body weight among litters of the same age. Percent inhibition of estrogen-stimulated uterine growth was calculated as described by Mizejewski et al. (1983).
# Two separate bioassays for inhibition of estrogen-stimulated growth were used. The first was an in vivo bioassay measuring an estrogen-induced increase in wet weight of the immature mouse uterus in a 24-hour determination. Dosages of peptide fragments ranged from 10 to 100 ng, and the %inhibition given in Table 6 represents the peak assay point of the dilution series.
# [2] = transformed human AFP preparations
# [3] = system: estrogen-stimulated growth of mouse uterus; details: full-length transformed AFP, see references cited; cited from earlier work
Molecule,Percent Growth Inhibition [1],time activity is retained [2],inhibition of estrogen-stimulated growth [3]
SEQ ID NO:5: 5' fragment generated by cutting the 34 amino acid peptide SEQ ID NO:1 with trypsin (HEMTPVNPGV),38%,–,–
SEQ ID NO:7: 3' fragment generated by cutting SEQ ID NO:1 with trypsin; 5 amino acids in length (LSEDK),no detectable growth inhibition,–,–
B1,–,one week or less,20-40%

# From US5707963A, “Methods of using growth inhibitory peptides” (Health Research, Incorporated, priority 1996, dated 1998)
